Data taken from patent US9090640B2, “Targeted delivery and prodrug designs for platinum-acridine anti-cancer compounds and methods thereof” (priority 2011, dated 2015).

Tests used:
[1] = system: NCI-H460; test: Cytotoxicity (cell proliferation) assay in NCI-H460; type: cell-based, human
Protocol: Cytotoxicity Assay. Cytotoxicity studies were carried out according to a standard protocol (Guddneppanavar et al. 2006) using the Celltiter 96 Aqueous Non-Radioactive Cell Proliferation Assay kit (Promega, Madison, Wis.). Stock solutions of 11, 14a, and 14b were prepared in phosphate-buffered saline (PBS) and serially diluted with media prior to incubation with cancer cells. IC50 values were calculated from non-linear curve fits using a sigmoidal dose-response equation in GraphPad Prism (GraphPad Software, La Jolla, Calif.). […]
Cell Proliferation Assay. Cell viability was assessed using the CellTiter 96 Aqueous Non-Radioactive Cell Proliferation Assay (Promega, Madison. Wis., USA) as described previously. […] The absorbance of tetrazolium dye was measured at 490) nm using a plate reader. The fraction of viable cells was calculated as a percentage of untreated control and is reported as the mean±standard deviation for 3 incubations of each compound. IC50 values were calculated from non-linear curve fits using a sigmoidal dose-response equation in GraphPad Prism (GraphPad Software, La Jolla, Calif.) and are averages of two individual experiments performed in triplicate. […]

[2] = system: MCF-7 (ER + breast); test: Colorimetric cell proliferation assay in MCF-7; type: cell-based; conditions: 72-h incubations performed in triplicate
[3] = system: MDA-MB-231 (triple-negative breast); test: Colorimetric cell proliferation assay in MDA-MB-231; type: cell-based; conditions: 72-h incubations performed in triplicate
[4] = system: OVCAR-3 (ovarian); test: Colorimetric cell proliferation assay in OVCAR-3; type: cell-based; conditions: 72-h incubations performed in triplicate
[5] = system: PANC-1 (pancreatic); test: Colorimetric cell proliferation assay in PANC-1; type: cell-based; conditions: 72-h incubations performed in triplicate

Q: With `N.N.[Cl][Pt][Cl]` [cispiatin, cis-diamminedichloroplatinum] as the molecule, how does the IC50 ([1]; 72-h incubations performed in triplicate (Table II), read-out: IC50, NCI-H460 (NSCLC)) read?
A: 1.2 ± 0.2 µM

Q: What about the “Fold less potent than the compounds of the invention in H460 cells” value ([1]; compared with 14a and 14b) of the same molecule?
A: at least 20 fold

Q: And the IC50 [2]?
A: 12 ± 2 µM

Q: What about the IC50 [3] of the same molecule?
A: 60 ± 7 µM

Q: And the IC50 [4]?
A: 3.3 ± 0.4 µM

Q: What about the IC50 [5] of the same molecule?
A: 6.6 ± 0.7 µM
